Measurements reported in ChEMBL document CHEMBL1201862, “PubChem BioAssay data set” (2004).
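Each compound was tested at five concentrations against cells in 96-well plates for 48 hours. Abbreviation: GI50, concentration required for 50% inhibition of growth.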 Active and inactive are the calls of the source. Rule as the data show it: active = GI50 up to about 1.1 µM and inactive = higher.

Key:
Assay in all cases: NCI anticancer screen, dose series, 48 h
A549 = tested on: A549
NCI-H522 = tested on: NCI-H522
SNB-19 = tested on: SNB-19
DLD-1 = tested on: DLD-1
ACHN = tested on: ACHN
SK-MEL-2 = tested on: SK-MEL-2
TK-10 = tested on: TK-10
SN12C = tested on: SN12C
UACC-257 = tested on: UACC-257
HCT-116 = tested on: HCT-116
UACC-62 = tested on: UACC-62
CCRF-CEM = tested on: CCRF-CEM
HT-29 = tested on: HT-29
Malme-3M = tested on: Malme-3M
M14 = tested on: M14
KM-20L2 = tested on: KM-20L2
OVCAR-5 = tested on: OVCAR-5
KM12 = tested on: KM12
IGROV-1 = tested on: IGROV-1
XF498 = tested on: XF498
NCI-H23 = tested on: NCI-H23
UO-31 = tested on: UO-31
HL-60 = tested on: HL-60
DMS-273 = tested on: DMS-273
SK-OV-3 = tested on: SK-OV-3
K562 = tested on: K562
M19-MEL = tested on: M19-MEL
EKVX = tested on: EKVX
SNB-75 = tested on: SNB-75
HCC 2998 = tested on: HCC 2998
LOX IMVI = tested on: LOX IMVI
HOP-62 = tested on: HOP-62
HCT-15 = tested on: HCT-15
786-0 = tested on: 786-0
RXF 631 = tested on: RXF 631
LXFL 529 = tested on: LXFL 529
MOLT-4 = tested on: MOLT-4
SW-620 = tested on: SW-620
SK-MEL-5 = tested on: SK-MEL-5
COLO 205 = tested on: COLO 205
DMS-114 = tested on: DMS-114
HOP-18 = tested on: HOP-18
SF-539 = tested on: SF-539
NCI-H460 = tested on: NCI-H460
OVCAR-3 = tested on: OVCAR-3
SF-268 = tested on: SF-268
RXF 393 = tested on: RXF 393
OVCAR-8 = tested on: OVCAR-8
OVCAR-4 = tested on: OVCAR-4
SF-295 = tested on: SF-295
CAKI-1 = tested on: CAKI-1
RPMI-8226 = tested on: RPMI-8226
SNB-78 = tested on: SNB-78
A498 = tested on: A498
U-251 = tested on: U-251
HOP-92 = tested on: HOP-92
SK-MEL-28 = tested on: SK-MEL-28
SR = tested on: SR
NCI-H226 = tested on: NCI-H226

Compound: COC(=O)c1cc2cc(OC)c(OC)cc2cc(C(=O)OC)c1=O
- GI50 (A549): > 100 µM (inactive)
- GI50 (NCI-H522): > 100 µM (inactive)
- GI50 (SNB-19): > 100 µM (inactive)
- GI50 (DLD-1): > 100 µM (inactive)
- GI50 (ACHN): > 100 µM (inactive)
- GI50 (SK-MEL-2): > 100 µM (inactive)
- GI50 (TK-10): > 100 µM (inactive)
- GI50 (SN12C): > 100 µM (inactive)
- GI50 (UACC-257): > 100 µM (inactive)
- GI50 (HCT-116): > 100 µM (inactive)
- GI50 (UACC-62): > 100 µM (inactive)
- GI50 (CCRF-CEM): > 100 µM (inactive)
- GI50 (HT-29): > 100 µM (inactive)
- GI50 (Malme-3M): > 100 µM (inactive)
- GI50 (M14): > 100 µM (inactive)
- GI50 (KM-20L2): > 100 µM (inactive)
- GI50 (OVCAR-5): > 100 µM (inactive)
- GI50 (KM12): > 100 µM (inactive)
- GI50 (IGROV-1): > 100 µM (inactive)
- GI50 (XF498): > 100 µM (inactive)
- GI50 (NCI-H23): > 100 µM (inactive)
- GI50 (UO-31): > 100 µM (inactive)
- GI50 (HL-60): > 100 µM (inactive)
- GI50 (DMS-273): > 100 µM (inactive)
- GI50 (SK-OV-3): > 100 µM (inactive)
- GI50 (K562): > 100 µM (inactive)
- GI50 (M19-MEL): > 100 µM (inactive)
- GI50 (EKVX): > 100 µM (inactive)
- GI50 (SNB-75): > 100 µM (inactive)
- GI50 (HCC 2998): > 100 µM (inactive)
- GI50 (LOX IMVI): 87.3 µM (inactive)
- GI50 (HOP-62): > 100 µM (inactive)
- GI50 (HCT-15): > 100 µM
- GI50 (786-0): > 100 µM (inactive)
- GI50 (RXF 631): > 100 µM (inactive)
- GI50 (LXFL 529): > 100 µM (inactive)
- GI50 (MOLT-4): > 100 µM (inactive)
- GI50 (SW-620): 35.3 µM (inactive)
- GI50 (SK-MEL-5): > 100 µM (inactive)
- GI50 (COLO 205): > 100 µM (inactive)
- GI50 (DMS-114): 29.6 µM (inactive)
- GI50 (HOP-18): > 100 µM (inactive)
- GI50 (SF-539): > 100 µM (inactive)
- GI50 (NCI-H460): > 100 µM (inactive)
- GI50 (OVCAR-3): > 100 µM (inactive)
- GI50 (SF-268): > 100 µM (inactive)
- GI50 (RXF 393): > 100 µM (inactive)
- GI50 (OVCAR-8): > 100 µM (inactive)
- GI50 (OVCAR-4): > 100 µM (inactive)
- GI50 (SF-295): > 100 µM (inactive)
- GI50 (CAKI-1): > 100 µM (inactive)
- GI50 (RPMI-8226): > 100 µM (inactive)
- GI50 (SNB-78): > 100 µM (inactive)
- GI50 (A498): > 100 µM (inactive)
- GI50 (U-251): > 100 µM (inactive)
- GI50 (HOP-92): > 100 µM (inactive)

Compound: Cc1ccc(/C=C2\CCCC(C(NO)c3ccc(C)cc3)C2=NO)cc1 (stereo not drawn)
- GI50 (A549): 36.1 µM (inactive)
- GI50 (NCI-H522): 28.5 µM (inactive)
- GI50 (SNB-19): 83.6 µM (inactive)
- GI50 (DLD-1): 28 µM (inactive)
- GI50 (ACHN): > 100 µM (inactive)
- GI50 (SK-MEL-2): 69.2 µM (inactive)
- GI50 (TK-10): > 100 µM (inactive)
- GI50 (SN12C): 20.7 µM (inactive)
- GI50 (UACC-257): 29.6 µM (inactive)
- GI50 (HCT-116): 45.6 µM (inactive)
- GI50 (UACC-62): 89.5 µM (inactive)
- GI50 (CCRF-CEM): 21 µM (inactive)
- GI50 (HT-29): 19.5 µM (inactive)
- GI50 (Malme-3M): 52.2 µM (inactive)
- GI50 (M14): 26.4 µM (inactive)
- GI50 (KM-20L2): 21.7 µM (inactive)
- GI50 (KM12): 21.2 µM (inactive)
- GI50 (IGROV-1): > 100 µM (inactive)
- GI50 (XF498): 43.7 µM (inactive)
- GI50 (NCI-H23): 24 µM (inactive)
- GI50 (UO-31): 57.4 µM (inactive)
- GI50 (HL-60): 19.5 µM (inactive)
- GI50 (DMS-273): 42 µM (inactive)
- GI50 (SK-OV-3): > 100 µM (inactive)
- GI50 (K562): 33.8 µM (inactive)
- GI50 (SK-MEL-28): 16.1 µM (inactive)
- GI50 (M19-MEL): 69.5 µM (inactive)
- GI50 (EKVX): 44.4 µM (inactive)
- GI50 (SNB-75): 28 µM (inactive)
- GI50 (HCC 2998): 16.8 µM (inactive)
- GI50 (HOP-62): 59.8 µM (inactive)
- GI50 (HCT-15): 36.3 µM
- GI50 (786-0): 58.3 µM (inactive)
- GI50 (RXF 631): 27.4 µM (inactive)
- GI50 (LXFL 529): 61.7 µM (inactive)
- GI50 (MOLT-4): 19.1 µM (inactive)
- GI50 (SW-620): 42.6 µM (inactive)
- GI50 (SK-MEL-5): 21.2 µM (inactive)
- GI50 (COLO 205): 19.1 µM (inactive)
- GI50 (DMS-114): 30.3 µM (inactive)
- GI50 (HOP-18): 11.4 µM (inactive)
- GI50 (SF-539): 39.6 µM (inactive)
- GI50 (NCI-H460): 24.7 µM (inactive)
- GI50 (OVCAR-3): 16.7 µM (inactive)
- GI50 (SF-268): 17.6 µM (inactive)
- GI50 (RXF 393): 20.6 µM (inactive)
- GI50 (OVCAR-8): 53 µM (inactive)
- GI50 (OVCAR-4): 20 µM (inactive)
- GI50 (CAKI-1): 81.8 µM (inactive)
- GI50 (RPMI-8226): 22.6 µM (inactive)
- GI50 (SNB-78): 60 µM (inactive)
- GI50 (A498): 49.8 µM (inactive)
- GI50 (U-251): 55.2 µM (inactive)

Compound: CCOc1ccc(/C=C2/C(=O)N=C(N)N=C2N)cc1OCC
- GI50 (A549): > 100 µM (inactive)
- GI50 (NCI-H522): > 100 µM (inactive)
- GI50 (SNB-19): > 100 µM (inactive)
- GI50 (ACHN): > 100 µM (inactive)
- GI50 (SK-MEL-2): > 100 µM (inactive)
- GI50 (TK-10): > 100 µM (inactive)
- GI50 (SN12C): > 100 µM (inactive)
- GI50 (UACC-257): > 100 µM (inactive)
- GI50 (HCT-116): > 100 µM (inactive)
- GI50 (UACC-62): > 100 µM (inactive)
- GI50 (CCRF-CEM): > 100 µM (inactive)
- GI50 (HT-29): > 100 µM (inactive)
- GI50 (Malme-3M): > 100 µM (inactive)
- GI50 (M14): > 100 µM (inactive)
- GI50 (KM-20L2): > 100 µM (inactive)
- GI50 (OVCAR-5): > 100 µM (inactive)
- GI50 (KM12): > 100 µM (inactive)
- GI50 (SR): > 100 µM (inactive)
- GI50 (IGROV-1): > 100 µM (inactive)
- GI50 (XF498): > 100 µM (inactive)
- GI50 (NCI-H23): > 100 µM (inactive)
- GI50 (UO-31): > 100 µM (inactive)
- GI50 (HL-60): > 100 µM (inactive)
- GI50 (DMS-273): > 100 µM (inactive)
- GI50 (SK-OV-3): > 100 µM (inactive)
- GI50 (K562): > 100 µM (inactive)
- GI50 (SK-MEL-28): > 100 µM (inactive)
- GI50 (M19-MEL): > 100 µM (inactive)
- GI50 (EKVX): > 100 µM (inactive)
- GI50 (SNB-75): > 100 µM (inactive)
- GI50 (HCC 2998): > 100 µM (inactive)
- GI50 (LOX IMVI): > 100 µM (inactive)
- GI50 (HCT-15): > 100 µM
- GI50 (786-0): > 100 µM (inactive)
- GI50 (RXF 631): > 100 µM (inactive)
- GI50 (LXFL 529): > 100 µM (inactive)
- GI50 (MOLT-4): > 100 µM (inactive)
- GI50 (SW-620): > 100 µM (inactive)
- GI50 (SK-MEL-5): > 100 µM (inactive)
- GI50 (COLO 205): > 100 µM (inactive)
- GI50 (DMS-114): > 100 µM (inactive)
- GI50 (HOP-18): > 100 µM (inactive)
- GI50 (NCI-H460): > 100 µM (inactive)
- GI50 (OVCAR-3): > 100 µM (inactive)
- GI50 (RXF 393): > 100 µM (inactive)
- GI50 (OVCAR-8): > 100 µM (inactive)
- GI50 (OVCAR-4): > 100 µM (inactive)
- GI50 (SF-295): > 100 µM (inactive)
- GI50 (CAKI-1): > 100 µM (inactive)
- GI50 (RPMI-8226): > 100 µM (inactive)
- GI50 (NCI-H226): > 100 µM (inactive)
- GI50 (SNB-78): > 100 µM (inactive)
- GI50 (U-251): > 100 µM (inactive)
- GI50 (HOP-92): > 100 µM (inactive)
